# Assay results published in patent publication EP1134585B1, “Biosensor and method for the monitoring of herbicides” (CONSIGLIO NAZIONALE DELLE RICERCHE, priority 2000, dated 2001).
# What was measured:
# [1] = biological target: D1 protein Phe211→Gly Met214→Gln (Chlamydomonas reinhardtii, UniProt P07753, F211G/M214Q); details: cited from earlier work
# [2] = biological target: D1 protein Phe255->Tyr (Chlamydomonas reinhardtii, UniProt P07753, F255Y); details: code Ar207+; cited from earlier work
# [3] = test system: PS II isolated from thermophilic cyanobacteria; details: immobilized PS II, Clark electrode (Koblizek et al.); cited from earlier work
# [4] = test system: PS II; details: PS II treated with CdCl2, refrigeration at 5°C, flow 0,2-2,0 ml/m
# Excerpt: To further increase the stability of the biomediator the usefulness of a system for the refrigeration of the solution containing herbicide forwarded into the measuring cell experimentally was observed.
# [5] = biological target: D1 protein A1a250→IIe (Chlamydomonas reinhardtii, UniProt P07753, A250I); details: cited from earlier work
# [6] = test system: thylakoids from Amaranthus retroflexus, Wild-type; assay: Biosensor fluorescence response (Table D), wild-type biomediator; format: biochemical; details: herbicide concentration 10^-6 M
# [7] = biological target: D1 protein A1a250->His (Chlamydomonas reinhardtii, UniProt P07753, A250H); details: cited from earlier work
# [8] = biological target: D1 protein Phe255->Tyr Ser264->Ala (Synechococcus elongatus, UniProt P04996, F255Y/S264A); details: code D5; cited from earlier work
# [9] = biological target: D1 protein Ala250->Asp (Chlamydomonas reinhardtii, UniProt P07753, A250D); details: cited from earlier work
# [10] = test system: thylakoids from Amaranthus retroflexus, Mutant; format: biochemical; details: herbicide concentration 10^-6 M
# [11] = biological target: D1 protein Ala250->Arg (Chlamydomonas reinhardtii, UniProt P07753, A250R); details: cited from earlier work
# [12] = biological target: D1 protein Ala250->Asn (Chlamydomonas reinhardtii, UniProt P07753, A250N); details: cited from earlier work
# [13] = biological target: D1 protein Ala250→Ser Phe255→IIe (Chlamydomonas reinhardtii, UniProt P07753, A250S/F255I); details: cited from earlier work
# [14] = biological target: D1 protein A1a250->Tyr (Chlamydomonas reinhardtii, UniProt P07753, A250Y); details: cited from earlier work
# [15] = test system: D1 protein Ser284->Gly; details: Chenopodium album; cited from earlier work
# [16] = test system: PhC2,6―Pro; details: cited from earlier work
# [17] = test system: Ile229->Met; details: R. shaeroides; cited from earlier work
# [18] = biological target: D1 protein A1a251->Cys (Chlamydomonas reinhardtii, UniProt P07753, A251C); details: cited from earlier work
# [19] = test system: Gly228->Arg; details: cited from earlier work
# [20] = test system: I1e229->Ala; details: cited from earlier work
# [21] = test system: I1e229->Cys; details: cited from earlier work
# [22] = test system: Phe216→Val; details: cited from earlier work
# [23] = test system: I1e228->Leu; details: cited from earlier work
# [24] = biological target: D1 protein Lysa)238->Val (Synechocystis sp., UniProt P16033, K238V); details: Lysa)238->Val (Arg in other organisms); cited from earlier work
# [25] = test system: Thr226->Ala; details: cited from earlier work
# [26] = test system: Tyr222->Phe; details: code T4; cited from earlier work
# [27] = test system: I1e229→Met; details: R. capsulatus; cited from earlier work
# [28] = test system: Gly228->Val; details: cited from earlier work
# [29] = test system: monoclonal antibodies; details: ELISA (Schneider et al. 1994); cited from earlier work
# [30] = test system: Ile229->Thr; details: cited from earlier work
# [31] = test system: Phe216->Thr; details: cited from earlier work
# [32] = test system: Thr226->Met; details: cited from earlier work
# [33] = test system: Gly192->Asp; details: cited from earlier work
# [34] = test system: Phe216->Leu; details: cited from earlier work
# [35] = test system: Ile229->Ser; details: cited from earlier work
# [36] = test system: -Phe216→Ser; details: code T6; cited from earlier work
# [37] = test system: GluM34->Lys; details: code M6; cited from earlier work
# [38] = test system: Ser223->Pro; details: code SP223; cited from earlier work
# [39] = test system: Phe216→Ser ValM263→Phe; details: double mutant Phe216→Ser ValM263→Phe, code T3; cited from earlier work
# [40] = test system: Tyr222->Gly; details: code YG222; cited from earlier work
# [41] = test system: Arg217→His Ser223→Ala; details: double mutant Arg217→His Ser223→Ala; cited from earlier work
# [42] = test system: Ile229->Met~.Met; details: code M29; cited from earlier work
# [43] = biological target: D1 protein Ser264->Ala (Chlamydomonas reinhardtii, UniProt P07753, S264A); details: codes MZ1 MZ3 MZ5; cited from earlier work
# [44] = test system: D1 protein Val219->Ile Thr220->Ala Ser270->Tyr; details: code L5; cited from earlier work
# [45] = test system: D1 protein Ser264->Thr; details: Nicotiana tabacum (cell culture); cited from earlier work
smiles,measurement,setting,value
Cc1nnc(-c2ccccc2)c(=O)n1N [Metamitron],Supersensitivity R/S,[1],"0,4"
same,Supersensitivity R/S,[2],"Metamitron 0,3"
CNC(=O)Nc1nc2ccccc2s1 [Benzthiazuron],Supersensitivity R/S,[2],"0,3"
N#Cc1cc(Br)c(O)c(Br)c1 [Bromoxynil],sensitivity,[3],10^-7 mol/l
same,sensitivity (concentration),[4],one order of magnitude higher
same,Supersensitivity R/S,[5],"Bromoxynil 0,3"
same,Area % inhibition Wild-type,[6],97%
same,Supersensitivity R/S,[7],"Bromoxynil 0,16"
same,Supersensitivity R/S,[8],"0,8"
same,Supersensitivity R/S,[9],"Bromoxynil 0,16"
same,Area % inhibition Mutant,[10],95%
same,Supersensitivity R/S,[11],"Bromoxynil 0,3"
same,Supersensitivity R/S,[12],"Bromoxynil 0,2"
same,Supersensitivity R/S,[13],"0,2"
same,Supersensitivity R/S,[14],"Bromoxynil 0,4"
CC(C)N1C(=O)c2ccccc2NS1(=O)=O [Bentazon],Supersensitivity R/S,[15],"Bentazon 0,5"
CCNc1nc(Cl)nc(NC(C)C)n1 [Atrazine],Resistance R/S,[16],"Atrazine 1,9"
same,Resistance R/S,[17],Atrazine >7
same,Supersensitivity R/S,[18],"Atrazin 0,8"
same,sensitivity (concentration),[4],lower than nanomolar
same,Supersensitivity R/S,[5],"Atrazine 0,5"
same,Resistance R/S,[19],"Atrazine 5,4"
same,Area % inhibition Wild-type,[6],96%
same,Resistance R/S,[20],"Atrazine 1,8"
same,Supersensitivity R/S,[9],"Atrazine 0,25"
same,Resistance R/S,[21],Atrazine 2
same,Resistance R/S,[22],"Atrazine 1,8"
same,Area % inhibition Mutant,[10],15%
same,Resistance R/S,[23],"Atrazine 3,5"
same,Supersensitivity R/S,[24],"Atrazine 0,6"
same,Resistance R/S,[25],"Atrazin 3,1"
same,Supersensitivity R/S,[11],Atrazin 0.25
same,Resistance R/S,[26],Atrazine >600
same,Resistance R/S,[27],"Atrazine 5,4"
same,Supersensitivity R/S,[12],"Atrazine 0,3"
same,Supersensitivity R/S,[13],"Atrazine 0,5"
same,Resistance R/S,[28],"Atrazine 4,2"
same,sensitivity,[29],100 pM
same,Resistance R/S,[30],"Atrazine 3,7"
same,Resistance R/S,[31],"Atrazine 3,5"
same,Resistance R/S,[32],"Atrazine 3,1"
same,Supersensitivity R/S,[14],"Atrazine 0,4"
same,Resistance R/S,[33],Atrazine 6
same,Resistance R/S,[34],"Atrazine 4,2"
same,Resistance R/S,[35],"Atrazine 1,8"
COC(=O)Nc1cccc(OC(=O)Nc2cccc(C)c2)c1 [Phenmedipham],Supersensitivity R/S,[18],"0,8"
CNc1nc(NC(C)C)nc(SC)n1 [Desmetryn],Area % inhibition Wild-type,[6],92%
same,Area % inhibition Mutant,[10],10%
same,Resistance R/S,[26],Desmetryn 50
CCNc1nc(NC(C)(C)C)nc(SC)n1 [Terbutryn],Resistance R/S,[36],Terbutryn >2800
same,Supersensitivity R/S,[5],"Terbutryn 0,5"
same,Resistance R/S,[37],Terbutryn > 125
same,Resistance R/S,[19],"Terbutryn 1,3"
same,Supersensitivity R/S,[9],"Terbutryn 0,4"
same,Resistance R/S,[38],Terbutryn >3000
same,Resistance R/S,[39],Terbutryn 166
same,Resistance R/S,[25],"Terbutryn 1,7"
same,Supersensitivity R/S,[25],"Terbutryn 0,6(?)"
same,Resistance R/S,[27],"Terbutryn 1,9"
same,Resistance R/S,[40],Terbutryn >3000
same,Resistance R/S,[41],Terbutryn 222
same,Resistance R/S,[42],Terbutryn 120
same,Supersensitivity R/S,[13],"0,9"
same,Resistance R/S,[28],"Terbutryn 1,5"
same,Resistance R/S,[32],"Terbutryn 1,7"
same,Resistance R/S,[33],Terbutryn 300
same,Supersensitivity R/S,[35],"Terbutryn 0,4"
CCC(C)n1c(=O)[nH]c(C)c(Br)c1=O (centres unmarked) [Bromacil],Supersensitivity R/S,[2],"Bromacil 0,9"
CSc1nc(NC(C)C)nc(NC(C)C)n1 [Prometryn],Resistance R/S,[19],"Prometryn 1,1"
same,Resistance R/S,[25],"Prometryn 1,4"
same,Resistance R/S,[27],Prometryn 2
same,Resistance R/S,[28],"Prometryn 1,4"
same,Resistance R/S,[30],"Prometryn 1,4"
same,Resistance R/S,[32],"Prometryn 1,1"
same,Resistance R/S,[34],"Prometryn 1,4"
CNC(=O)N(C)c1nc2ccccc2s1 [Metabenzthiazuron],Supersensitivity R/S,[2],"zuron 0,3"
COc1nc(NC(C)C)nc(NC(C)C)n1 [Prometon],Resistance R/S,[16],"Prometon 1,8"
same,Resistance R/S,[19],"Prometon 1,2"
same,Resistance R/S,[20],"Prometron 1,2"
same,Resistance R/S,[25],"Prometon 1,8"
same,Resistance R/S,[27],"Prometron 1,2"
same,Resistance R/S,[28],"Prometon 1,3"
same,Resistance R/S,[30],"Prometon 1,2"
same,Resistance R/S,[34],"Prometon 1,8"
CC(C)Cc1cc([N+](=O)[O-])cc([N+](=O)[O-])c1O [i-Dinoseb],Supersensitivity R/S,[43],"i-Dinoseb 0,7"
c1cnc2c(c1)ccc1cccnc12 [o-Phenanthroline],Resistance R/S,[36],o-Phenanthroline 333
same,Resistance R/S,[37],o-Phenanthroline >25
same,Resistance R/S,[38],"o-Phenanthroline 6,25"
same,Resistance R/S,[39],o-Phenathroline 67
same,Supersensitivity R/S,[25],"line 0,03"
same,Resistance R/S,[26],o-Phenanthroline 10
same,Resistance R/S,[40],o-Phenanthroline 26
same,Resistance R/S,[41],o-Phenanthroline 5
same,Resistance R/S,[42],o-Phenanthro me 11
same,Resistance R/S,[33],o-Phenanthroline 3
same,Resistance R/S,[35],"o-Phenanthroline 1,3"
CCNc1nc(Cl)nc(NCC)n1 [Simazine],sensitivity (concentration),[4],lower than nanomolar
same,Area % inhibition Wild-type,[6],95%
same,Area % inhibition Mutant,[10],14%
CCNc1nc(NC(C)C)nc(SC)n1 [Ametryn],Resistance R/S,[16],"Ametryn 1,9"
same,Resistance R/S,[19],Ametryn 4
same,Area % inhibition Wild-type,[6],99%
same,Area % inhibition Mutant,[10],21%
same,Resistance R/S,[23],"Ametryn 2,5"
same,Resistance R/S,[25],Ametryn 4
same,Resistance R/S,[26],Ametryn 330
same,Resistance R/S,[27],"Ametryn 5,3"
same,Resistance R/S,[28],"Ametryn 5,3"
same,Resistance R/S,[30],"Ametryn 1,9"
same,Resistance R/S,[32],"Ametryn 2,5"
same,Resistance R/S,[34],"Ametryn 3,1"
CCC(C)c1cc([N+](=O)[O-])cc([N+](=O)[O-])c1O (centres unmarked) [Dinoseb],Area % inhibition Wild-type,[6],99%
same,Supersensitivity R/S,[8],"0,08"
same,Area % inhibition Mutant,[10],93%
same,Supersensitivity R/S,[44],"Dinoseb 0,7"
same,Supersensitivity R/S,[45],"Dinoseb 0,13"
